Measurements from the NIST ThermoML archive (doi:10.1021/acs.jced.7b00060).
Numbers after ± are expanded uncertainties.

What was measured:
[1] = refractive index (Na D-line) (dimensionless); conditions: 101.33 kPa, Liquid, Standard Abbe refractometry
[2] = 101.33 kPa, Liquid; for electrical conductivity: Alternating current cell with electrodes; for viscosity: Falling or rolling sphere viscometry; for mass density: Vibrating tube method

CC[S+](CC)CC.O=S(=O)([N-]S(=O)(=O)C(F)(F)F)C(F)(F)F [triethylsulfonium bis((trifluoromethyl)sulfonyl)imide]
Conditions	electrical conductivity [S/m]	mass density [kg/m3]	refractive index	viscosity [mPa·s]
[1], 283.15 K	–	–	1.4308 ± 0.0029	–
[1], 288.15 K	–	–	1.4293 ± 0.0029	–
[1], 293.15 K	–	–	1.4279 ± 0.0029	–
[1], 298.15 K	–	–	1.4264 ± 0.0029	–
[1], 303.15 K	–	–	1.4249 ± 0.0029	–
[1], 308.15 K	–	–	1.4234 ± 0.0029	–
[1], 313.15 K	–	–	1.4219 ± 0.0029	–
[1], 318.15 K	–	–	1.4204 ± 0.0029	–
[1], 323.15 K	–	–	1.419 ± 0.0029	–
[1], 328.15 K	–	–	1.4175 ± 0.0029	–
[1], 333.15 K	–	–	1.4161 ± 0.0029	–
[1], 338.15 K	–	–	1.4148 ± 0.0029	–
[1], 343.15 K	–	–	1.4134 ± 0.0028	–
[2], 258.15 K	0.0992 ± 0.0015	–	–	–
[2], 268.15 K	0.186 ± 0.0028	–	–	–
[2], 278.15 K	0.314 ± 0.0047	1479.69 ± 3	–	80.5 ± 1.8
[2], 288.15 K	0.487 ± 0.0073	1469.86 ± 3	–	49.88 ± 0.9
[2], 298.15 K	0.708 ± 0.011	1460.14 ± 3	–	33.36 ± 0.59
[2], 308.15 K	0.975 ± 0.015	1450.51 ± 3	–	23.5 ± 0.41
[2], 318.15 K	1.29 ± 0.019	1440.97 ± 2.9	–	17.34 ± 0.3
[2], 328.15 K	1.64 ± 0.025	1431.52 ± 2.9	–	13.26 ± 0.23
[2], 338.15 K	2.03 ± 0.03	1422.15 ± 2.9	–	10.44 ± 0.18
[2], 348.15 K	2.46 ± 0.037	–	–	8.445 ± 0.15
[2], 358.15 K	2.91 ± 0.044	–	–	6.963 ± 0.12
[2], 368.15 K	3.4 ± 0.051	–	–	5.849 ± 0.1
[2], 378.15 K	3.92 ± 0.059	–	–	4.99 ± 0.087
[2], 388.15 K	4.43 ± 0.07	–	–	4.312 ± 0.075
[2], 398.15 K	5 ± 0.075	–	–	3.768 ± 0.066
[2], 408.15 K	5.58 ± 0.084	–	–	–
[2], 418.15 K	6.16 ± 0.092	–	–	–
[2], 428.15 K	6.76 ± 0.1	–	–	–
[2], 438.15 K	7.37 ± 0.11	–	–	–
[2], 448.15 K	7.98 ± 0.12	–	–	–
[2], 458.15 K	8.59 ± 0.13	–	–	–
[2], 468.15 K	9.17 ± 0.14	–	–	–

CCCC[n+]1ccccc1.O=S(=O)([N-]S(=O)(=O)C(F)(F)F)C(F)(F)F [1-butylpyridinium bis[(trifluoromethyl)sulfonyl]imide]
Conditions	electrical conductivity, [2] [S/m]	mass density, [2] [kg/m3]	refractive index, [1]	viscosity, [2] [mPa·s]
278.15 K	0.119 ± 0.0018	1467.88 ± 3	–	182.1 ± 8
283.15 K	–	–	1.4474 ± 0.0029	–
288.15 K	0.206 ± 0.0031	1458.26 ± 3	1.4459 ± 0.0029	100.9 ± 2.8
293.15 K	–	–	1.4444 ± 0.0029	–
298.15 K	0.326 ± 0.0049	1448.74 ± 3	1.4429 ± 0.0029	61.39 ± 1.1
303.15 K	–	–	1.4414 ± 0.0029	–
308.15 K	0.483 ± 0.0073	1439.32 ± 2.9	1.4399 ± 0.0029	40.14 ± 0.72
313.15 K	–	–	1.4384 ± 0.0029	–
318.15 K	0.677 ± 0.01	1430.02 ± 2.9	1.4369 ± 0.0029	27.9 ± 0.49
323.15 K	–	–	1.4354 ± 0.0029	–
328.15 K	0.909 ± 0.014	1420.8 ± 2.9	1.4339 ± 0.0029	20.36 ± 0.36
333.15 K	–	–	1.4324 ± 0.0029	–
338.15 K	1.17 ± 0.018	1411.66 ± 2.9	1.4309 ± 0.0029	15.42 ± 0.27
343.15 K	–	–	1.4294 ± 0.0029	–
348.15 K	1.47 ± 0.022	1402.6 ± 2.9	–	12.04 ± 0.21
358.15 K	1.8 ± 0.027	1393.63 ± 2.8	–	9.663 ± 0.17
368.15 K	2.16 ± 0.032	–	–	7.904 ± 0.14
378.15 K	2.54 ± 0.038	–	–	–
388.15 K	2.94 ± 0.044	–	–	–
398.15 K	3.37 ± 0.05	–	–	–
418.15 K	4.27 ± 0.064	–	–	–
438.15 K	5.24 ± 0.079	–	–	–

CCCCCCCC[N+](C)(CCCCCCCC)CCCCCCCC.O=C([O-])C(F)(F)F [methyltrioctylammonium trifluoroacetate]
[2]
Conditions	electrical conductivity [S/m]	mass density [kg/m3]	viscosity [mPa·s]
288.15 K	–	–	3629 ± 520
298.15 K	0.00155 ± 2.4e-05	962.478 ± 2.1	1551 ± 180
303.15 K	–	959.262 ± 2	–
308.15 K	0.00329 ± 5e-05	956.054 ± 2	735.2 ± 67
313.15 K	–	952.805 ± 2	–
318.15 K	0.0063 ± 9.5e-05	949.626 ± 2	380.8 ± 26
323.15 K	–	946.478 ± 2	–
328.15 K	0.0112 ± 0.00017	943.335 ± 2	212.1 ± 11
333.15 K	–	940.189 ± 2	–
338.15 K	0.0185 ± 0.00028	937.046 ± 2	126.7 ± 4.3
343.15 K	–	933.904 ± 2	–
348.15 K	0.0293 ± 0.00044	930.772 ± 2	79.97 ± 1.9
353.15 K	–	927.648 ± 2	–
358.15 K	0.0444 ± 0.00067	924.529 ± 2	53.33 ± 0.99
363.15 K	–	921.418 ± 2	–
368.15 K	0.0647 ± 0.00097	–	36.92 ± 0.73
378.15 K	0.0924 ± 0.0014	–	26.69 ± 0.52
388.15 K	0.125 ± 0.0019	–	19.8 ± 0.39
398.15 K	–	–	15.03 ± 0.3
